Measurements taken from patent US6506760B1, “Substituted hydrazinyl heteroaromatic inhibitors of thrombin” (Corvas International, Inc., priority 2000, dated 2003).
Like-named read-outs stand apart in the source and are kept apart here.

How the values were obtained:
Format in all cases: biochemical
[1] = target: human α-thrombin (Homo sapiens, UniProt P00734); assay: Thrombin (fIIa) chromogenic assay, IC50
[2] = target: T1, Factor Xa (Homo sapiens, UniProt P00742); assay: Factor Xa chromogenic assay, IC50; conditions: 30 min incubation; read-out: fxa IC50 (30 min)
T1 construct: purchased Enzyme Research Laboratories, Inc. (South Bend, Ind.)
T1 sequence (P00742 235-488 limits assumed): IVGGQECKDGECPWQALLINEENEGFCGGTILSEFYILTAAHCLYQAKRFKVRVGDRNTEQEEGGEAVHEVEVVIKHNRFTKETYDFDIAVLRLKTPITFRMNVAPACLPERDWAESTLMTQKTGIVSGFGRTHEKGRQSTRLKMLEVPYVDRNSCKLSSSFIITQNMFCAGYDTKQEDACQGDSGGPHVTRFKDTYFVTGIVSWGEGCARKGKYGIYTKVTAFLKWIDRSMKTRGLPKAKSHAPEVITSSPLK
T1 sequence (P00742 41-179 partner limits assumed): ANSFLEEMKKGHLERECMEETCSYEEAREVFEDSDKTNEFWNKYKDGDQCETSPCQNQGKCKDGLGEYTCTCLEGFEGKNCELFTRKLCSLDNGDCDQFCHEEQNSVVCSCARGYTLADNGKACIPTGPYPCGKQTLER
Protocol: (§1) The ability of compounds of the present invention to act as a selective inhibitor of thrombin activity was assessed by determining the concentration of test-compound which inhibited the activity of this enzyme by 50%, (IC50), and comparing this value to that determined for all or some of the following related serine proteases: recombinant tissue plasminogen activator (rt-PA), plasmin, activated protein C, chymotrypsin, factor Xa and trypsin.
(§2) The buffer used for all assays was HBSA (10 mM HEPES, pH 7.5, 150 mM sodium chloride, 0.1% bovine serum albumin).
(§3) The assay for IC50 determinations was conducted by combining in appropriate wells of a Corning microtiter plate, 50 microliters of HBSA, 50 microliters of the test compound at a specified concentration (covering a broad concentration range) diluted in HBSA (or HBSA alone for V0 (uninhibited velocity) measurement), and 50 microliters of the enzyme diluted in HBSA. Following a 30 minute incubation at ambient temperature, 50 microliters of the substrate at the concentrations specified below were added to the wells, yielding a final total volume of 200 microliters. The initial velocity of chromogenic substrate hydrolysis was measured by the change in absorbance at 405 nm using a Thermo Max® Kinetic Microplate Reader over a 5 minute period in which less than 5% of the added substrate was utilized. The concentration of added inhibitor which caused a 50% decrease in the initial rate of hydrolysis was defined as the IC50 value.
Factor Xa catalytic activity was determined using the chromogenic substrate S-2765 (N-benzyloxycarbonyl-D-arginine-L-glycine-L-arginine-p-n itroaniline ), obtained from DiaPharma Group (Franklin, Ohio). All substrates were reconstituted in deionized water prior to use. […] Purified human Factor X was obtained from Enzyme Research Laboratories, Inc. (South Bend, Ind.) and Factor Xa (FXa) was activated and prepared from it as described [Bock, P. E., Craig, P. A., Olson, S. T., and Singh, P. Arch, Biochem. Biophys, 273:375-388 (1989)]. The enzyme was diluted into HBSA prior to assay in which the final concentration was 0.25 nM.

[3] = target: human plasmin (Homo sapiens, UniProt P00747); assay: Plasmin chromogenic assay, IC50; conditions: 30 min incubation
Sequence of human plasmin (P00747 581-810 limits assumed): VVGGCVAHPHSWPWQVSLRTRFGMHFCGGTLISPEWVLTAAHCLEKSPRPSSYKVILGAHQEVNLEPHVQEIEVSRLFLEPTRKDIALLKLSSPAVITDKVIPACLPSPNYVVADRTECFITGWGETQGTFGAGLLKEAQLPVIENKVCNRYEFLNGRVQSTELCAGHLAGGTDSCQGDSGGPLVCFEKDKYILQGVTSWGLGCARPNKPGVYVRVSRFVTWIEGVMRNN
Sequence of human plasmin (P00747 97-580 partner limits assumed): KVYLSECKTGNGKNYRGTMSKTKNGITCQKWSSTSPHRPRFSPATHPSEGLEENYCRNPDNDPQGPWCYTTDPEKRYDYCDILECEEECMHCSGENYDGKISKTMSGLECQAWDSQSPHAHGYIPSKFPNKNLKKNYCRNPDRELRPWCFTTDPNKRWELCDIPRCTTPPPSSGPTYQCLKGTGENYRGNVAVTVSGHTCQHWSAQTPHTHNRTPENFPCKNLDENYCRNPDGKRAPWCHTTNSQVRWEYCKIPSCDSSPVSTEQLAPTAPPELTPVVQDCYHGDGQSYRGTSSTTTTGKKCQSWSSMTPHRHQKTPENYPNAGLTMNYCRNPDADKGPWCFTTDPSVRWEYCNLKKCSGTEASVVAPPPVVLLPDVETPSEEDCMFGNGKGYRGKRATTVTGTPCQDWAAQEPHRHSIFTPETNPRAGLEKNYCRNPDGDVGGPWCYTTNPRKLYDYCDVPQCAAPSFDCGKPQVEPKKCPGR
Protocol: as §1, §2, §3
Plasmin catalytic activity was determined using the chromogenic substrate, S-2366 [L-pyroglutamyl-L-prolyl-L-arginine-p-nitroaniline hydrochloride], which was obtained from DiaPharma group. The substrate was made up in deionized water followed by dilution in HBSA prior to the assay in which the final concentration was 300 micromolar (about 2.5-times Km). Purified human plasmin was obtained from Enzyme Research Laboratories, Inc. The enzyme was diluted into HBSA prior to assay in which the final concentration was 1.0 nM.

[4] = target: T2, bovine pancreatic trypsin (Bos taurus, UniProt P00760); assay: Trypsin chromogenic assay, IC50; conditions: 30 min incubation
T2 construct: bovine pancreatic trypsin was obtained from Worthington Biochemical Corp; purchased Worthington Biochemical Corp. TRL3; host or cells: bovine pancreas
T2 sequence (P00760 24-246): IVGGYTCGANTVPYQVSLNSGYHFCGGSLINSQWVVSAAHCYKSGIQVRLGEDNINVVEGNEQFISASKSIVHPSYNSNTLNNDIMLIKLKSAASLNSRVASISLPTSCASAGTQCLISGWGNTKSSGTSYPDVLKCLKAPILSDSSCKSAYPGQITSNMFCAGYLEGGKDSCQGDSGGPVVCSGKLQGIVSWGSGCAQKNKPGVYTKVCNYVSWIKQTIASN
Protocol: as §1, §2, §3
Trypsin catalytic activity was determined using the chromogenic substrate, S-2222 (benzoyl-L-isoleucine-L-glutamic acid-[gamma-methyl ester]-L-arginine-p-nitroanilide), which was obtained from DiaPharma Group. […] Purified (3×-crystallized; TRL3) bovine pancreatic trypsin was obtained from Worthington Biochemical Corp. The enzyme was reconstituted in deionized water and diluted into HBSA prior to assay in which the final concentration was 0.5 nM.

[5] = 0 min incubation of enzyme with inhibitor, read-out: fIIa IC50 (0 min)
[6] = 30 min incubation of enzyme with inhibitor, read-out: fIIa IC50 (30 min)

Compound | IC50 [1, 5] [µM] | IC50 [1, 6] [µM] | IC50 [2] [µM] | IC50 [3] [µM] | IC50 [4] [µM]
Cc1nc(N)ccc1CNC(=O)Cn1c(C)cnc(NNC(=O)OCC(C)(C)C)c1=O [Example 31, 1-[5-(2-Amino-6-methylpyridyl)methylcarboxamidomeyhyl-]6-methyl-3-(2-neopentyloxycarbonylhydrazino)pyrazinone, Hydrotrifluoroacetate] | ≤ 0.1 | ≤ 0.1 | ≥ 100 | ≥ 100 | 2.5 to 100
C#CCOC(=O)N(CC)Nc1ncc(C)n(CC(=O)NCc2ccc(N)nc2C)c1=O [Example 58, 1-[5-(2-Amino-6-methylpyridyl)methylcarboxamidomeyhyl-]3-[2-ethyl-2-(propargyloxycarbonyl)hydrazino]-6-methylpyrazinone, Hydrotrifluoroacetate] | ≤ 0.1 | ≤ 0.1 | ≥ 100 | ≥ 100 | ≥ 100
1-[5-(2-Amino-6-methylpyridyl)methylcarboxamidomethyl]-3-[2-(2-chlorobenzenesulfonyl)hydrazino]-6-methylpyrazinone, Hydrotrifluoroacetate [Example 53] | ≤ 0.1 | ≤ 0.1 | 2.5 to 100 | ≥ 100 | 2.5 to 100
Cc1nc(N)ccc1CNC(=O)Cn1c(C)cnc(NNC(=O)NCCC(C)(C)C)c1=O [Example 50, 1-[5-(2-Amino-6-methylpyridyl)methylcarboxamidomethyl]-6-methyl-3-[2-(3,3-dimethylbutylcarbamyl)hydrazino]pyrazinone, Hydrotrifluoroacetate] | ≤ 0.1 | ≤ 0.1 | 2.5 to 100 | ≥ 100 | 2.5 to 100
Cc1nc(N)ccc1CNC(=O)Cn1c(C)cnc(NNS(=O)(=O)c2ccccc2F)c1=O [Example 54, 1-[5-(2-Amino-6-methylpyridyl)methylcarboxamidomethyl]-3-[2-(2-fluorobenzenesulfonyl)hydrazino]-6-methyl pyrazinone, Hydrotrifluoroacetate] | ≤ 0.1 | ≤ 0.1 | ≥ 100 | ≥ 100 | ≥ 100
C#CCOC(=O)NNc1ncc(C)n(CC(=O)NCc2ccc(N)nc2C)c1=O [Example 30, 1-[5-(2-Amino-6-methylpyridyl)methylcarboxamidomethyl]-6-methyl-3-(2-propargyloxycarbonylhydrazino)pyrazinone, Hydrotrifluoroacetate] | ≤ 0.1 | ≤ 0.1 | ≥ 100 | ≥ 100 | ≥ 100
C#CCOC(=O)N(C)Nc1ncc(C)n(CC(=O)NCc2ccc(N)nc2C)c1=O [Example 59, 1-[5-(2-Amino-6-methylpyridyl)methylcarboxamidomethyl]-6-methyl-3-[2-methyl-2-(propargyloxycarbonyl)hydrazino]pyrazinone, Hydrotrifluoroacetate] | ≤ 0.1 | ≤ 0.1 | ≥ 100 | ≥ 100 | 2.5 to 100
Cc1nc(N)ccc1CNC(=O)Cn1c(C)cnc(NNS(=O)(=O)c2ccccc2)c1=O [Example 22, 1-[5-(2-Amino-6-methylpyridyl)methylcarboxamidomethyl]-6-methyl-3-(2-phenylsulfonylhydrazino)pyrazinone, Hydrotrifluoroacetate] | ≤ 0.1 | ≤ 0.1 | ≥ 100 | ≥ 100 | 2.5 to 100
Cc1nc(N)ccc1CNC(=O)Cn1c(C)cnc(NNC(=O)OCc2ccccc2Cl)c1=O [Example 24, 1-[5-(2-Amino-6-methylpyridyl)methylcarboxamidomethyl]-3-[2-(2-chlorobenzyloxycarbonyl)hydrazino]-6-methylpyrazinone, Hydrotrifluoroacetate] | ≤ 0.1 | ≤ 0.1 | ≥ 100 | ≥ 100 | 2.5 to 100
Cc1nc(N)ccc1CNC(=O)Cn1c(C)cnc(NNS(=O)(=O)c2ccccc2C(F)(F)F)c1=O [Example 45, 1-[5-(2-Amino-6-methylpyridyl)methylcarboxamidomethyl]-6-methyl-3-[2-(2-trifluoromethylbenzenesulfonyl)hydrazino]pyrazinone, Hydrotrifluoroacetate] | ≤ 0.1 | ≤ 0.1 | 2.5 to 100 | ≥ 100 | ≥ 100
Cc1nc(N)ccc1CNC(=O)Cn1c(C)cnc(NNC(=O)OCc2ccccc2Cl)c1=O [Example 32, 1-[5-(2-Amino-6-methylpyridyl)methylcarboxamidomethyl]-3-[2-(2-chlorobenzyloxycarbonyl)hydrazino]-6-methylpyrazinone, Hydrotrifluoroacetate] | ≤ 0.1 | ≤ 0.1 | ≥ 100 | 2.5 to 100 | ≥ 100
Cc1nc(N)ccc1CNC(=O)Cn1c(C)cnc(NNC(=O)NCc2ccc(Cl)cc2)c1=O [Example 37, 1-[5-(2-Amino-6-methylpyridyl)methylcarboxamidomethyl]-3-[2-(4-chlorobenzylcarbamyl)hydrazino]-6-methylpyrazinone, Hydrotrifluoroacetate] | ≤ 0.1 | ≤ 0.1 | ≥ 100 | ≥ 100 | ≥ 100
Cc1nc(N)ccc1CNC(=O)Cn1c(C)cnc(NN(CCc2ccccc2)CCc2ccccc2)c1=O [Example 60, 1-[5-(2-Amino-6-methylpyridyl)methylcarboxamidomethyl]-6-methyl-3-[2,2-di(2-phenylethyl)hydrazino]pyrazinone, Hydrotrifluoroacetate] | ≤ 0.1 | ≤ 0.1 | 2.5 to 100 | ≥ 100 | ≥ 100
C=CCCOC(=O)NNc1ncc(C)n(CC(=O)NCc2ccc(N)nc2C)c1=O [Example 28, 1-[5-(2-Amino-6-methylpyridyl)methylcarboxamidomethyl]-3-[2-(3-butenyloxycarbonyl)hydrazino]-6-methylpyrazinone, Hydrotrifluoroacetate] | ≤ 0.1 | ≤ 0.1 | 2.5 to 100 | ≥ 100 | ≥ 100
Cc1nc(N)ccc1CNC(=O)Cn1c(C)cnc(NNC(=O)Cc2ccccc2)c1=O [Example 12, 1-[5-(2-Amino-6-methylpyridyl)methylcarboxamidomeyhyl-]6-methyl-3-(2-phenylacetylhydrazino)pyrazinone, Hydrotrifluoroacetate] | ≤ 0.1 | ≤ 0.1 | ≥ 100 | 2.5 to 100 | ≥ 100
COc1ccccc1CNC(=O)NNc1ncc(C)n(CC(=O)NCc2ccc(N)nc2C)c1=O [Example 48, 1-[5-(2-Amino-6-methylpyridyl)methylcarboxamidomethyl]-3-[2-(2-methoxybenzylcarbamyl)hydrazino]-6-methylpyrazinone, Hydrotrifluoroacetate] | ≤ 0.1 | ≤ 0.1 | ≥ 100 | ≥ 100 | ≥ 100
COc1ccc(S(=O)(=O)NNc2ncc(C)n(CC(=O)NCc3ccc(N)nc3C)c2=O)cc1 [Example 57] | ≤ 0.1 | ≤ 0.1 | 2.5 to 100 | ≥ 100 | ≥ 100
Cc1nc(N)ccc1CNC(=O)Cn1c(C)cnc(NNC(=O)NCc2ccc3c(c2)OCO3)c1=O [Example 49, 1-[5-(2-Amino-6-methylpyridyl)methylcarboxamidomethyl]-6-methyl-3-(2-piperonylcarbamylhydrazino)pyrazinone, Hydrotrifluoroacetate] | ≤ 0.1 | ≤ 0.1 | ≥ 100 | ≥ 100 | ≥ 100
